From ChEMBL document CHEMBL3046674, “A new fatty alcohol from Terminalia arjuna leaves with antileishmanial activity” (Med Chem Res, 2013)
Converted amounts (≈) assume the structure as drawn.

These compounds were tested on Leishmania donovani (assay: Antileishmanial activity against promastigote form of Leishmania donovani after 48 hrs by Alamar Blue assay).
Assay type: functional, organism-based

Row | SMILES | IC50 [µg/mL] | IC90 [µg/mL]
1 | CC(=O)OC/C=C(\C)CC(C)CC(C)CCCCCCCCC(C)C (configuration not stated) | 2 (≈ 5.67 µM) | 6 (≈ 17 µM)
2 | C[C@@H]1[C@H](O)[C@@H](C)/C=C/C=C/C=C/C=C/C=C/C=C/C=C/[C@H](O[C@@H]2O[C@H](C)[C@@H](O)[C@H](N)[C@@H]2O)C[C@@H]2O[C@](O)(C[C@@H](O)C[C@@H](O)[C@H](O)CC[C@@H](O)C[C@@H](O)CC(=O)O[C@H]1C)C[C@H](O)[C@H]2C(=O)O [AMPHOTERICIN B] | 0.47 (≈ 0.509 µM) | 0.65 (≈ 0.703 µM)
3 | N=C(N)c1ccc(OCCCCCOc2ccc(C(=N)N)cc2)cc1 [PENTAMIDINE] |  | 2.03 (≈ 5.96 µM)
4 | C/C(=C\CO)CC(C)CC(C)CCCCCCCCC(C)C (configuration not stated) | 9 (≈ 29 µM) | 30 (≈ 96.6 µM)
